Source: publication PMC6225275 (Molecules : A Journal of Synthetic Chemistry and Natural …, 2018)
Where “and” joins values, the source holds several entries; their conditions need not be identical. Equal entries are not always repeated.

Columns and labels:
Type in all cases: biochemical
[1] = molecular target: T1, diisopropylfluorophosphate (DFP)-inhibited human recombinant AChE (HssAChE) (Homo sapiens, UniProt P22303); conditions: pH 7.4
T1 construct: purchased Sigma-Aldrich

[2] = molecular target: T2, methylparaoxon (MePOX)-inhibited human recombinant AChE (HssAChE) (Homo sapiens, UniProt P22303); conditions: for MePOX-HssAChE Reactivation (% ± SD): pH 7.4
T2 construct: purchased Sigma-Aldrich
T2 sequence (P22303 32-614): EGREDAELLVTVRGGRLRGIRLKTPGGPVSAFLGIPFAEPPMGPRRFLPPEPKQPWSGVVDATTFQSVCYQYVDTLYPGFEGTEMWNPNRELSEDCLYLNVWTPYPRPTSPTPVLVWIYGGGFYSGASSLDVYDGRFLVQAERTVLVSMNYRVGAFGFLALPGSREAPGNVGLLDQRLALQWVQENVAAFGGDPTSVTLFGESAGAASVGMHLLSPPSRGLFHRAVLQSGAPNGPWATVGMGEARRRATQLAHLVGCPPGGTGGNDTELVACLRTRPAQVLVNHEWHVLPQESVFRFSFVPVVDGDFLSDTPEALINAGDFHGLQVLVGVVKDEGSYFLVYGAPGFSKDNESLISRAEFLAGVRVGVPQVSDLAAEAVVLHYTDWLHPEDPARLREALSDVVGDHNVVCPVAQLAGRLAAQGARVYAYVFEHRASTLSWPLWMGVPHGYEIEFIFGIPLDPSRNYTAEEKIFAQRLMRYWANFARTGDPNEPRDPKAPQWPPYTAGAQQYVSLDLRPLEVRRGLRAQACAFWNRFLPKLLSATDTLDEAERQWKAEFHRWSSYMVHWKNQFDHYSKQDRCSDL

[3] = molecular target: T3, paraoxon (POX)-inhibited human recombinant AChE (HssAChE) (Homo sapiens, UniProt P22303); conditions: for POX-HssAChE Reactivation (% ± SD): pH 7.4
T3 construct: purchased Sigma-Aldrich
T3 sequence (P22303 32-614): as above

T1 sequence (P22303 32-614): as above

SMILES	DFP-HssAChE Reactivation (% ± SD) [1]	MePOX-HssAChE Reactivation (% ± SD) [2]	POX-HssAChE Reactivation (% ± SD) [3]	MePOX reactivation, maximum over both concentrations [2]	POX reactivation, maximum over both concentrations [3]
ON=Cc1cc[n+](CCCC[n+]2cccc3ccccc32)cc1 [Compound 12, 4-Hydroxyiminomethyl-1,1′-(but-1,4-diyl)-1-pyridinium-1′-quinolinium dibromide]	0.2 ± 1.0% and 0.8 ± 0.2%	2.2 ± 0.5% and 8.6 ± 0.4%	0.6 ± 0.5% and 2.0 ± 0.1%		
ON=Cc1cc[n+](CCCC[n+]2ccc(/C=N/O)cc2)cc1 [Compound 7, reference compound]	1.4 ± 0.5% and 1.4 ± 0.2%	17.9 ± 0.1% and 21.2 ± 0.4%			
ON=Cc1cc[n+](CCCC[n+]2ccc3ccccc3c2)cc1 [Compound 13, 4-Hydroxyiminomethyl-1,1′-(but-1,4-diyl)-1-pyridinium-1′-isoquinolinium dibromide]	0.7 ± 0.2% and 1.1 ± 0.2%	8.2 ± 0.8% and 16.9 ± 0.4%	9.1 ± 0.3% and 8.7 ± 0.3%		
Cc1cc[n+](CCCC[n+]2ccc(C=NO)cc2)cc1.[Br-].[Br-] [Compound 14, 4-Hydroxyiminomethyl-4′-methyl-1,1′-(but-1,4-diyl)-bispyridinium dibromide]	1.1 ± 0.4% and 0.8 ± 0.3%	9.5 ± 0.5% and 9.4 ± 0.2%			
CCOC(=O)c1cc[n+](CCCC[n+]2ccc(C=NO)cc2)cc1 [Compound 21, 4-Ethylcarboxy-4′-hydroxyiminomethyl-1,1′-(but-1,4-diyl)-bispyridinium dibromide]	0.8 ± 0.3% and 1.1 ± 0.2%	3.8 ± 0.4% and 7.2 ± 0.2%	7.1 ± 0.7% and 4.0 ± 0.6%		
ON=Cc1cc[n+](CCCC[n+]2ccc(-c3ccccc3)cc2)cc1.[Br-].[Br-] [Compound 16, 4-Hydroxyiminomethyl-4′-phenyl-1,1′-(but-1,4-diyl)-bispyridinium dibromide]	0.7 ± 0.2% and 1.0 ± 0.3%	1.7 ± 0.3% and 6.2 ± 0.4%	6.9 ± 0.4% and 8.9 ± 0.5%		
ON=Cc1cc[n+](CCCC[n+]2ccccc2)cc1.[Br-].[Br-] [Compound 10, 4-Hydroxyiminomethyl-1,1′-(but-1,4-diyl)-bispyridinium dibromide]	2.4 ± 0.5% and 0.4 ± 0.3%	14.3 ± 0.8% and 13.2 ± 0.1%			
O=C(O)c1cc[n+](CCCC[n+]2ccc(C=NO)cc2)cc1.[Br-].[Br-] [Compound 20, 4-Carboxy-4′-hydroxyiminomethyl-1,1′-(but-1,4-diyl)-bispyridinium dibromide]	1.1 ± 0.5% and 0.4 ± 0.1%	9.5 ± 0.3% and 8.8 ± 0.4%			
CC(C)(C)c1cc[n+](CCCC[n+]2ccc(C=NO)cc2)cc1.[Br-].[Br-] [Compound 15, 4-Hydroxyiminomethyl-4′-(1,1-dimethylethyl)-1,1′-(but-1,4-diyl)-bispyridinium dibromide]	1.7 ± 0.5% and 0.8 ± 0.3%	4.0 ± 0.5% and 7.6 ± 0.5%			
ON=Cc1cc[n+](CCCC[n+]2ccccn2)cc1 [Compound 11, 4-Hydroxyiminomethyl-1,1′-(but-1,4-diyl)-1-pyridinium-1′-pyridazinium dibromide]	1.2 ± 0.7% and 1.0 ± 0.4%	7.1 ± 0.7% and 11.8 ± 0.4%	6.3 ± 0.8% and 3.0 ± 0.3%		
ON=Cc1cc[n+](C/C=C/C[n+]2ccc(/C=N/O)cc2)cc1 [Compound 8, reference compound]	1.1 ± 0.3% and 1.5 ±0.2%	19.2 ± 0.9% and 22.8 ± 0.2%			
NC(=NO)c1cc[n+](CCCC[n+]2ccc(C=NO)cc2)cc1.[Br-].[Br-] [Compound 23, 4-(1-Amino-1-hydroxyiminomethyl)-4′-hydroxyiminomethyl-1,1′-(but-1,4-diyl)-bispyridinium dibromide]	3.1 ± 0.8% and 2.0 ± 0.2%	21% and 20.2 ± 1.0% and 20.7 ± 0.4%			
NC(=O)c1cc[n+](CCCC[n+]2ccc(C=NO)cc2)cc1C(N)=O.[Br-].[Br-] [Compound 24, 3,4-Dicarbamoyl-4′-hydroxyiminomethyl-1,1′-(but-1,4-diyl)-bispyridinium dibromide]	0.7 ± 0.4% and 0.7 ± 1.0%	4.2 ± 0.5% and 10.1 ± 0.2%	2.0 ± 0.4% and 2.2 ± 0.8%		
OCc1cc[n+](CCCC[n+]2ccc(C=NO)cc2)cc1.[Br-].[Br-] [Compound 18, 4-Hydroxyiminomethyl-4′-hydroxymethyl-1,1′-(but-1,4-diyl)-bispyridinium dibromide]	3.8 ± 1.0% and 1.4 ± 0.4%	6.7 ± 0.3% and 8.1 ± 0.3%			
ON=Cc1cc[n+](C[n+]2ccc(C=NO)cc2)cc1 [Compound 5, methoxime, reference compound]	2.4 ± 0.1% and 0.6 ± 0.3%	14.2 ± 0.1% and 14.3 ± 0.2%			
NC(=O)c1cc[n+](C/C=C/C[n+]2ccc(/C=N/O)cc2)cc1 [Compound 9, (E)-1-(4-Carbamoylpyridinium)-4-(4-hydroxyiminomethylpyridinium)-but-2-ene Dibromide, reference compound]	4.4 ± 0.1% and 2.1 ± 0.4%	55.9 ± 0.5% and 41.1 ± 0.1%			
C[n+]1ccccc1/C=N/O [Compound 1, pralidoxime, reference compound]	1.3 ± 0.6% and 0.1 ± 0.4%	30.2 ± 0.3% and 22.4 ± 0.7%	10.7 ± 0.3% and 2.1 ± 0.1%	up to 30%	up to 11%
NC(=O)c1cc[n+](CCCC[n+]2ccc(/C=N/O)cc2)cc1 [Compound 6, reference compound]	3.8 ± 0.1% and 1.4 ± 0.1%	54.4 ± 0.9% and 29.1 ± 0.4%			
ON=Cc1cc[n+](CCCC[n+]2ccc(Cc3ccccc3)cc2)cc1.[Br-].[Br-] [Compound 17, 4-Hydroxyiminomethyl-4′-phenylmethyl-1,1′-(but-1,4-diyl)-bispyridinium dibromide]	0.0 ± 0.5% and 0.8 ± 0.2%	0.0 ± 0.1% and 3.8 ± 0.4%	1.2 ± 0.1% and 4.7 ± 0.3%		
ON=Cc1cc[n+](CCC[n+]2ccc(/C=N/O)cc2)cc1 [Compound 4, trimedoxime, reference compound]	10.0 ± 0.5% and 2.7 ± 0.3%	51.4 ± 0.9% and 59.5 ± 0.7%			
CC(=O)c1cc[n+](CCCC[n+]2ccc(C=NO)cc2)cc1.[Br-].[Br-] [Compound 19, 4-Hydroxyiminomethyl-4′-methylcarbonyl-1,1′-(but-1,4-diyl)-bispyridinium dibromide]	1.5 ± 0.3% and 1.0 ± 0.2%	5.2 ± 0.4% and 7.5 ± 0.1%	11.9 ± 1.0% and 3.9 ± 0.3%		
N#Cc1cc[n+](CCCC[n+]2ccc(C=NO)cc2)cc1 [Compound 22, 4-Carbonitril-4′-hydroxyiminomethyl-1,1′-(but-1,4-diyl)-bispyridinium dibromide]	1.7 ± 0.5% and 0.4 ± 0.2%	11.1 ± 0.1% and 13.8 ± 0.3%			
